Results on one substance are retold here after PMC4526861, “Inhibition of protein kinase C by isojacareubin suppresses hepatocellular carcinoma metastasis and induces apoptosis in vitro and in vivo” (Scientific Reports, 2015).

One experiment has as its system cPKC and nPKC. The experiment can be described thus: Pull-down competition with free ISJ. It is filed as binding, human. The conditions noted are these: free ISJ 20 μM, HepG2 lysates. The source says: (§1) To identify whether ISJ and compound 7 target PKC in cells, we performed pull-down experiments using ISJ- and compound 7-coupled Sepharose beads with HepG2 cell lysates. Endogenous cPKC (PKCα) and nPKC (PKCδ, PKCε and PKCμ) in HepG2 lysates were pulled down by ISJ-coupled CNBr-activated Sepharose 4B beads (Fig. 5a).
Figure 5 Direct interactions between ISJ and PKC isotypes. (a) Immobilized on CNBr-activated Sepharose 4B beads, ISJ directly bound to cPKC (PKCα) and nPKC (PKCδ, PKCε and PKCμ). (b) HepG2 cell lysates were incubated with ISJ-conjugated Sepharose 4B beads or with DMSO-conjugated control beads in the absence or presence of free ISJ (20 μM), and the bead-captured proteins were subjected to analysis by immunoblotting.
(§2) The control beads were prepared by incubating the beads with DMSO. Proteins (500 μg) from lysed HepG2 cells were mixed with either the control beads, compound 7-coupled beads, or ISJ-coupled beads (100 μL) in reaction buffer [50 mM Tris (pH 7.5), 5 mM EDTA, 150 mM NaCl, 1 mM DTT, 0.01% NP-40, 2 μg/mL BSA, 1 mM PMSF, 1% protease inhibitor mixture]. After incubation with gentle rocking overnight at 4 °C, the beads were washed 5 times with washing buffer [50 mM Tris (pH 7.5), 5 mM EDTA, 150 mM NaCl, 1 mM DTT, 0.01% NP-40, 1 mM PMSF], and binding was visualized by western blotting.

The next experiment has as its target T1, PKCμ (Homo sapiens, UniProt Q15139).
T1 construct: Endogenous cPKC (PKCα) and nPKC (PKCδ, PKCε and PKCμ) in HepG2 lysates were pulled down; endogenous in cells; host or cells: HepG2
T1 sequence (Q15139 1-912): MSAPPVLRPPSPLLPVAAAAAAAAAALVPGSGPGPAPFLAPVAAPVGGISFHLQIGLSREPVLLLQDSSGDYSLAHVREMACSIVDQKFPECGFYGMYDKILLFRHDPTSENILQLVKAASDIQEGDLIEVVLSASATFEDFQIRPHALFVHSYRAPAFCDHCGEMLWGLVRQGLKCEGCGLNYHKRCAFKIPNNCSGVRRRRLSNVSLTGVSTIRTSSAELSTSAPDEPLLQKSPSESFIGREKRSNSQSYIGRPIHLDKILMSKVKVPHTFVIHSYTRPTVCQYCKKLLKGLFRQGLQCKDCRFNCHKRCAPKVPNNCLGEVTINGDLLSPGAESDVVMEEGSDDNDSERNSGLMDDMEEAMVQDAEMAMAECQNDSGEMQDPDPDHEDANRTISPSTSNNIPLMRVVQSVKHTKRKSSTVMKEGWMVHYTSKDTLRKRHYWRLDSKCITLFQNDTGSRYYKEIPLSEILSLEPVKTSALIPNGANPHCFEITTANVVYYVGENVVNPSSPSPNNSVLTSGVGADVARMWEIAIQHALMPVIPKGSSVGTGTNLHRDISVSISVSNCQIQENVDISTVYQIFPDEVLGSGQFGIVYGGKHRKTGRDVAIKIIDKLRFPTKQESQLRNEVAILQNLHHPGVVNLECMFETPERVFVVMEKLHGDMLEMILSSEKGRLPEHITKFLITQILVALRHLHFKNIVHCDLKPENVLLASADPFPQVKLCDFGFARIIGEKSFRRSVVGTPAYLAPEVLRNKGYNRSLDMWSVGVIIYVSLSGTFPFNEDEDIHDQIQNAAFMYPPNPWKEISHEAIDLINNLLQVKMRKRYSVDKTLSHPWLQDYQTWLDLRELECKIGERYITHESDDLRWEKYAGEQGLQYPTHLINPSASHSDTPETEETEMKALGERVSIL
The experiment can be described thus: Cell-based pull-down assay, PKCμ. Type of experiment: binding. The conditions noted are these: HepG2 lysates. The protocol: as §1, §2

The subject of another experiment is c-PARP, p53 and p21. Kind of experiment: Western blot of apoptotic proteins, HepG2. Type of experiment: cell-based, human. Particulars: HepG2, 24 h. The protocol:
Additional PKC targeting effects involved in the early response of major MAPK phosphorylation and the late response of HCC cell invasion and apoptosis were investigated. After 24 h of treatment with ISJ at the indicated concentrations, the total protein lysates from HCC cells were analyzed (Fig. 6). ISJ inhibited the phosphorylated, activated forms of c-Raf, MEK1/2 and ERK1/2 in the MAPK signaling pathway in both HepG2 and QGY-7703 cells (Fig. 6a). […] In contrast, E-cadherin expression was elevated, specifically at the highest concentration of ISJ (20 μM) (Fig. 6b). In addition, we analyzed several representative apoptotic proteins, including cleaved PARP (c-PARP), p53 and p21. […] These findings support our hypothesis that ISJ restrains HCC cell metastasis and induces HCC cell apoptosis by specifically inhibiting PKC.
The total membrane and cytosolic proteins were extracted using a Membrane and Cytosol Protein Extraction Kit (Beyotime). Extracted proteins from cells or animal tissues were separated by SDS-PAGE and transferred to polyvinylidene difluoride (PVDF) membranes (Bio-Rad). The PVDF membranes were blocked with 5% nonfat milk and incubated with primary antibodies overnight, followed by incubation with a donkey anti-rabbit or anti-mouse secondary antibody (IRDye 800, LI-COR, Biosciences). […] The intensity was quantitative with Quantity One software (Bio-Rad). […]
(In general: A western blot detects proteins with antibodies after separation by electrophoresis.)

The next experiment relates to PKC. Kind of experiment: PKC activity assay (PepTag non-radioactive, HepG2 lysates). It is filed as biochemical, human. Particulars: 3 h. The protocol: The activity of PKC in HepG2 cells was assessed 3 h after the addition of compound 7 or ISJ by measuring the phosphorylation of a PKC-specific target peptide. Compared to the basal control (in the absence of any compound), PKC activity was inhibited by compound 7 and ISJ.
Figure 3 Effects of compound 7 and ISJ on PKC activity in HepG2 cells. The proteins from lysed HepG2 cells were prepared and measured for their ability to phosphorylate a PKC-specific peptide substrate (PLSRTLSVAAK) in a non-radioactive assay. (a) Lanes 1 and 2 show the negative (water only) and positive controls (with 20 ng purified PKC). Supernatants from HepG2 cells were subjected to the PKC activity assay in the absence (basal control, lane 3) or presence (lanes 4–7) of the compounds. Compound 7 (lanes 4 and 5) and ISJ (lanes 6 and 7) were added separately at 10 and 5 μM. (b) Quantification of (a); *P < 0.05 versus the basal control. Data are shown as the mean ± SD of three independent experiments.
The PKC activity assay was carried out as previously reported, according to the instructions of the PepTag non-radioactive PKC assay kit (Promega)[60]. The bands were photographed using the Syngene GBOX-iCHEMI-XR system, and the phosphorylated bands were cut out for quantification measurement at 570 nm.

As to Isojacareubin [ISJ], in the experiment on cPKC and nPKC, the “amounts of cPKC and nPKC captured by ISJ-coupled 4B beads in presence of free compound” value is “obvious decline”. The “pull-down of endogenous PKCμ by compound-coupled Sepharose 4B beads” value at PKCμ is given as “pulled down”. Besides, in the experiment with c-PARP, p53 and p21, the “expression levels of c-PARP, p53 and p21” value is “increased”. The “inhibition of PKC activity compared to the basal control” value in the experiment with PKC (5 μM) was determined as 52.3%; in the experiment on PKC (10 μM), 77.7%.
